pIC50, pKi: −log10 of the molar value.

One data set has as its target T1, CYP2C11 (Rattus norvegicus, UniProt P08683).
T1 construct: consisting of pooled HLMs (0.5 mg/ml) or RLMs (1 mg/ml) and an NADPH-regenerating system; from tissue; host or cells: rat liver microsomes prepared in house
T1 sequence (P08683 1-500): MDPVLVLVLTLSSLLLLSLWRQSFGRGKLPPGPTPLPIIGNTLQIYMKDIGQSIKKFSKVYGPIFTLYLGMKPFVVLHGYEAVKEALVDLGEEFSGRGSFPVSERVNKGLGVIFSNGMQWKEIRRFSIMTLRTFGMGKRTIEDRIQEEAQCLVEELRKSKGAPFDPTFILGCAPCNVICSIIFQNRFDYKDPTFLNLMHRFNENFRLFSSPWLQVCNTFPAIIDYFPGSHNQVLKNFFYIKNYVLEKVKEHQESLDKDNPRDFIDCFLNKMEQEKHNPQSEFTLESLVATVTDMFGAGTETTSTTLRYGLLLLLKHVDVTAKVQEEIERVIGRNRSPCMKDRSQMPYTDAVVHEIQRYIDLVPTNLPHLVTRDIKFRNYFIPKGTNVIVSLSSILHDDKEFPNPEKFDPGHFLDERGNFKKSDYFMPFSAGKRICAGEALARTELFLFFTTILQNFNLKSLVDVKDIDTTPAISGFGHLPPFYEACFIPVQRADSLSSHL
The class given is in vitro ADME. As to the method: (§1) In this study, the rats were fasted overnight and killed by cervical dislocation before removal of the liver. The liver was excised, rinsed with ice-cold saline (0.9% NaCl w/v), weighed and homogenized in a […] Tris/KCl buffer (pH 7.4). Subsequently, the homogenate was centrifuged at 10,000 × g at 4 °C for 30 min. The supernatant was then centrifuged at 105,000 × g at 4 °C for 60 min. The pellet was reconstituted with […] Tris/KCl buffer (pH 7.4) and stored at −150 °C until use. The protein concentration of the liver microsomes was determined by a protein quantitative assay using bicinchoninic acid[22].
(§2) Microsomal incubation was carried out at 37 °C in a mixture of 200 μl in 0.05 M Tris/HCl buffer (pH 7.4) consisting of pooled HLMs (0.5 mg/ml) or RLMs (1 mg/ml) and an NADPH-regenerating system including MgCl2 (5 mM), G6P (10 mM), G6PDH (0.4 U/ml) and NADP (1 mM). Substrates were added into the incubation mixture and obtained the final concentrations (10 μM phenacetin for CYP1A2, 20 μM bupropion for CYP2B1/6, 20 μM tolbutamide for CYP2C9/11, 5 μM dextromethorphan for CYP2D1/6, 20 μM chlorzoxazone for CYP2E1 and 10 μM midazolam for CYP3A2/4), which were close to Km respectively. The proportion of organic solvent was not higher than 1% (v/v) in the incubation mixture. After pre-incubation for 5 min, the reaction was initiated by addition of NADP. Incubations were performed for 20 min, stopped by adding 200 μl ice-cold acetonitrile. And then 20 μl internal standard solution was added (3-acetamidophenol 2 μg/ml, chlorpropamide 2 μg/ml and mebendazole 2 μg/ml). The solution was mixed thoroughly for 3 min and centrifuged for 10 min at 16,000 × g at 4 °C. The supernatant (60 μl) was transferred to autosampler vials, and 2 μl was injected into LC-MS/MS system.
(§3) The IC50 (concentration of inhibitor to cause 50% inhibition of original enzyme activity) values were determined with the same incubation condition above. The specific concentrations of plumbagin were ranged from 0.1 μM to 50 μM. The IC50 values were calculated by plotting relative activities over the logarithm of plumbagin concentrations using GraphPad Prism 5.0 (GraphPad software Inc., CA, USA).
(§4) Cocktail probe substrates were then added and incubated for 20 min. Reactions were stopped with 200 μl ice-cold acetonitrile. The samples were treated according to the microsomal incubation method and then injected into LC-MS/MS for analysis.
(§5) Kinetic studies were performed for determining the types of inhibition on CYP by plumbagin. Pooled HLMs (0.5 mg/ml) or RLMs (1 mg/ml) with plumbagin (1 μM, 2 μM, 5 μM and 10 μM) were incubated in 0.05 M Tris/HCl buffer (pH 7.4) for 20 min at 37 °C. A series of concentrations for cocktail probe substrates were used: 2.5–20 μM phenacetin for CYP1A2; 5–40 μM bupropion for CYP2B1/6; 5–40 μM tolbutamide for CYP2C9/11; 1.25–10 μM dextromethorphan for CYP2D1/6; 5–40 μM chlorzoxazone for CYP2E1; 2.5–80 μM midazolam for CYP3A2; and 0.625–5 μM midazolam for CYP3A4. Enzyme kinetics as well as statistical analysis were performed using GraphPad Prism 5.0.
(§6) All data were presented as mean ± SD. The IC50 values were fitted by non-linear regression analysis using GraphPad Prism 5.0. The kinetic parameters were obtained by fitting velocity data to kinetic models (Michaelis-Menten) using GraphPad Prism 5.0. The Lineweaver-Burk Plot (the reciprocal of reaction velocities versus the reciprocal of substrates concentrations) was used to determine the quality of fit to a specific inhibition model. The inhibition constant (Ki) was obtained by a secondary plot using the slopes of the primary Lineweaver-Burk Plot (Km/Vmax versus inhibitor concentrations). αKi was obtained from a secondary plot using the y-intercepts of the Lineweaver-Burk plot (1/Vmax versus inhibitor concentrations). All results were analyzed in quadruplicate. One-way analysis of variance was used to estimate the significance of differences. […]

The target of the next data set is T2, CYP3A2 (Rattus norvegicus, UniProt P05183).
T2 construct: consisting of pooled HLMs (0.5 mg/ml) or RLMs (1 mg/ml) and an NADPH-regenerating system; from tissue; host or cells: rat liver microsomes prepared in house
T2 sequence (P05183 1-504): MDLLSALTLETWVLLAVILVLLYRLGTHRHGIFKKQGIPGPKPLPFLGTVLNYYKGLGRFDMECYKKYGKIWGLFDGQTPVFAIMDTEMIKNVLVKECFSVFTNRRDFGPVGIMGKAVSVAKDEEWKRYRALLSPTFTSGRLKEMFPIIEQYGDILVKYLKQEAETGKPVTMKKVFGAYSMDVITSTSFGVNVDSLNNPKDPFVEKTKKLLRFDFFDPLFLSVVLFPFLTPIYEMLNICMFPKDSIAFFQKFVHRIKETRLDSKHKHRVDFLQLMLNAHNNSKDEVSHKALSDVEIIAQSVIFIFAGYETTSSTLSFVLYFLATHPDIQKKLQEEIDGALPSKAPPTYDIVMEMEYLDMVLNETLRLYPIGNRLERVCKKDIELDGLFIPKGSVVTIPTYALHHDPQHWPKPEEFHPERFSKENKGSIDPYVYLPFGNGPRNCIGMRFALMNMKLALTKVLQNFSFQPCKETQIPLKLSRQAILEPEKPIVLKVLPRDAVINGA
The class given is in vitro ADME. As to the method: as §1, §2, §3, §4, §5, §6

Regarding `CC1=CC(=O)c2c(O)cccc2C1=O` [plumbagin, 5-hydroxy-2-methyl-1,4-naphthoquinone], at CYP2C11, the pIC50 – broadly, −log10 of the IC50, conventionally taken in molar units – is 5.41; the pKi – broadly, the negative decadic logarithm of the Ki, by convention in mol/L – is 5.11; the Type of inhibition result is “competitive”. Besides, the pIC50 at CYP3A2 was 5.07.

The values above are taken from PMC4916434, “Evaluation of the inhibition potential of plumbagin against cytochrome P450 using LC-MS/MS and cocktail approach” (Scientific Reports, 2016).
